# What was measured:
# ZR-75-1 cells = assay: Clonogenic assay in ZR-75-1 cells (E2-E6 ESR1-CCDC170 fusion); type: cell-based, human; settings: for cell viability, concomitant inhibitor compared to endocrine treatment alone: lapatinib 2 µM or dasatinib 0.05 µM with tamoxifen or fulvestrant
# Protocol: A) Sensitivity of ZR-75-1 cells to tamoxifen in combination with HER2, SRC, or HER2+SRC inhibitors as measured by clonogenic assays. ZR-75-1 cells were treated with different dosages of 4-OH tamoxifen (µM), or 4-OH tamoxifen plus lapatinib (2 µM), dasatinib (0.05 µM), or lapatinib (2 µM) + dasatinib (0.05 µM). Data were normalized against vehicle treatment alone (as 100%). […] Data were normalized against vehicle treatment alone (as 100%).
# Left panel, the representative plate images of clonogenic assays. Right panel, the relative clonogenic viabilities normalized to tamoxifen monotreatment (Means ± SD. of triplicates).
# The clonogenic viabilities following the respective treatments were assessed by clonogenic assays.
# HER2 = settings: HCC1428 cells
# HCC1428 cells = assay: Clonogenic assay in HCC1428 cells (endogenous E2-E10 ESR1-CCDC170 fusion); type: cell-based, human; settings: for cell viability, inhibitor in combination with tamoxifen or fulvestrant compared to tamoxifen or fulvestrant alone / therapeutic effect when combined with fulvestrant, comparison / therapeutic activity in combination with tamoxifen or fulvestrant, comparison between inhibitors: lapatinib 2 µM; for cell viability, inhibitor in combination with tamoxifen or fulvestrant compared to tamoxifen or fulvestrant alone: dasatinib 0.05 µM, BEZ235 8 nM; for cell viability, inhibitor in combination with tamoxifen or fulvestrant compared to tamoxifen or fulvestrant alone / therapeutic activity in combination with tamoxifen or fulvestrant, comparison between inhibitors: AZD8931 1 µM; for therapeutic effect when combined with fulvestrant, comparison: dasatinib 0.05 µM plus fulvestrant; for therapeutic activity in combination with tamoxifen or fulvestrant, comparison between inhibitors: dasatinib 0.05 µM vs BEZ235 8 nM
# CAMA-1 = assay: Clonogenic assay in fusion-negative CAMA-1 cells; type: cell-based; settings: Homo sapiens; CAMA-1 (fusion-negative); titrated lapatinib in combination with 0.5 µM tamoxifen, 10 to 13 days; read-out: IC50 (clonogenic viability)
# MDA-MB-415 = assay: Clonogenic assay in fusion-negative MDA-MB-415 cells; type: cell-based; settings: Homo sapiens; MDA-MB-415 (fusion-negative); titrated lapatinib in combination with 0.5 µM tamoxifen, 10 to 13 days; read-out: IC50 (clonogenic viability)
Structure (SMILES),"cell viability, inhibitor in combination with tamoxifen or fulvestrant compared to tamoxifen or fulvestrant alone (HCC1428 cells)","cell viability, concomitant inhibitor compared to endocrine treatment alone (ZR-75-1 cells)","therapeutic effect when combined with fulvestrant, comparison (HCC1428 cells)","therapeutic activity in combination with tamoxifen or fulvestrant, comparison between inhibitors (HCC1428 cells)",further results
CC/C(=C(\c1ccccc1)c1ccc(OCCN(C)C)cc1)c1ccccc1 [tamoxifen],,,,,"response of cells to endocrine treatment (clonogenic assay) (ZR-75-1 cells; increasing doses of tamoxifen or fulvestrant): responded; HER2 protein level (Western blot) (HER2): upregulated; cell growth (clonogenic assay), endocrine agent alone (HCC1428 cells; Tam 0.5 µM or Ful 0.1 µM, 72 hours): reduced cell growth efficiently"
CNC(=O)CN1CCC(Oc2cc3c(Nc4cccc(Cl)c4F)ncnc3cc2OC)CC1 [AZD8931],significantly inhibited cell viability,,,,
Cc1nc(Nc2ncc(C(=O)Nc3c(C)cccc3Cl)s2)cc(N2CCN(CCO)CC2)n1 [dasatinib],significantly inhibited cell viability,did not show any significant therapeutic benefit,comparable therapeutic effects,better therapeutic activities than BEZ235 or AZD8931,"activity in the presence of tamoxifen, comparison (HCC1428 cells; dasatinib 0.05 µM vs lapatinib 2 µM plus 4-OH tamoxifen): better activity than lapatinib"
CS(=O)(=O)CCNCc1ccc(-c2ccc3ncnc(Nc4ccc(OCc5cccc(F)c5)c(Cl)c4)c3c2)o1 [lapatinib],significantly inhibited cell viability,further decreased cell viability,comparable therapeutic effects,better therapeutic activities than BEZ235 or AZD8931,"IC50 (ZR-75-1 cells; Homo sapiens, ZR-75-1 (E2-E6 variant), titrated lapatinib in combination with 0.5 µM tamoxifen, 10 to 13 days, normalized to tamoxifen monotreatment, read-out: IC50 (clonogenic viability)): 600 nM; IC50 (CAMA-1): 6500 nM; IC50 (HCC1428 cells; Homo sapiens, HCC1428 (E2-E10 variant), titrated lapatinib in combination with 0.5 µM tamoxifen, 10 to 13 days, normalized to tamoxifen monotreatment, read-out: IC50 (clonogenic viability)): 150 nM; IC50 (MDA-MB-415): 4000 nM"
Cn1c(=O)n(-c2ccc(C(C)(C)C#N)cc2)c2c3cc(-c4cnc5ccccc5c4)ccc3ncc21 [BEZ235],significantly inhibited cell viability,,,,

# Reference: patent US20230175069A1, “COMPOSITIONS AND METHODS FOR DETECTING GENE FUSIONS OF ESR1 AND CCDC170 FOR DETERMINING INCREASED RESISTANCE TO ENDOCRINE THERAPY AND FOR CANCER TREATMENT” (UNIVERSITY OF PITTSBURGH-OF THE COMMONWEAL TH SYSTEM OF …, priority 2020, published 2023)
